Source: PubChem BioAssay AID1259411 (Chemical Carcinogenesis Research Information System (CCRIS), 2018)
Calls of active or inactive are those of the source. The rule behind the calls is not given here.

Tested on: rodent carcinogenicity bioassays, tumor incidence
Experiment: CCRIS carcinogenicity studies
Outline: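 NCI-built, expert-reviewed records of carcinogenicity and related test outcomes (mutagenicity, tumor promotion/inhibition) compiled from published and report sources, historical span 1985-2011, not updated.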

For `CCOCCc1c(-c2ccccc2)nc(N)n2ncnc12`, which carcinogen call (Species: RAT, Strain/Sex: STRAIN-CD/FEMALE, Route: ORAL, Dose: 0, 50, 150, 450 MG/KG/D IN DIET FOR 97 WK (STUDY DURATION: 105 WK), Dose: 0, 50, 150, 450 MG/KG/D IN DIET FOR 97 WK (STUDY DURATION: 105 WK), Tumor Site: Type of Lesion: LIVER: ADENOMA OR CARCINOMA, MAMMARY GLAND: ADENOMA OR CARCINOMA, THYROID GLAND: ADENOMA, Tumor Site: Type of Lesion: LIVER: ADENOMA OR CARCINOMA, MAMMARY GLAND: ADENOMA OR CARCINOMA, THYROID GLAND: ADENOMA) is on record?
Its carcinogen call is “active; positive”.

What about the carcinogen call (Species: RAT, Strain/Sex: STRAIN-CD/MALE, Route: ORAL, Dose: 0, 50, 150, 450 MG/KG/D IN DIET FOR 97 WK (STUDY DURATION: 105 WK), Dose: 0, 50, 150, 450 MG/KG/D IN DIET FOR 97 WK (STUDY DURATION: 105 WK), Tumor Site: Type of Lesion: LIVER: ADENOMA OR CARCINOMA, THYROID GLAND: ADENOMA OR CARCINOMA) of the same compound?
The carcinogen call was “active; positive”.

What does the source list for `Oc1ccc(Cl)cc1Cc1ccccc1`?
carcinogen call (Species: MOUSE, Strain/Sex: B6C3F1/FEMALE, Route: GAVAGE, Dose: 0, 120, 240, 480 MG/KG BW IN CORN OIL 5 D/WK FOR 103 WK (STUDY DURATION: 2 YR), Dose: 0, 120, 240, 480 MG/KG BW IN CORN OIL 5 D/WK FOR 103 WK (STUDY DURATION: 2 YR)): inactive; negative; carcinogen call (Species: MOUSE, Strain/Sex: B6C3F1/MALE, Route: GAVAGE, Dose: 0, 120, 240, 480 MG/KG BW IN CORN OIL 5 D/WK FOR 103 WK (STUDY DURATION: 2 YR), Dose: 0, 120, 240, 480 MG/KG BW IN CORN OIL 5 D/WK FOR 103 WK (STUDY DURATION: 2 YR), Tumor Site: Type of Lesion: KIDNEY (RENAL TUBULE): ADENOMA, ADENOMA OR CARCINOMA): active; positive; carcinogen call (Species: MOUSE, Strain/Sex: CD-1/FEMALE, Route: DERMAL, Dose: 10 MG IN ACETONE ONCE FOLLOWED BY 0.1, 1, 3 MG 3/WK FOR 51 WK (STUDY DURATION: 52 WK), Dose: 10 MG IN ACETONE ONCE FOLLOWED BY 0.1, 1, 3 MG 3/WK FOR 51 WK (STUDY DURATION: 52 WK)): inactive; negative; carcinogen call (Species: MOUSE, Strain/Sex: CD-1/MALE, Route: DERMAL, Dose: 10 MG IN ACETONE ONCE FOLLOWED BY 0.1, 1, 3 MG 3/WK FOR 51 WK (STUDY DURATION: 52 WK), Dose: 10 MG IN ACETONE ONCE FOLLOWED BY 0.1, 1, 3 MG 3/WK FOR 51 WK (STUDY DURATION: 52 WK)): inactive; negative; carcinogen call (Species: RAT, Strain/Sex: F344/FEMALE, Route: GAVAGE, Dose: 0, 30, 60, 120 MG/KG BW IN CORN OIL 5 D/WK FOR 103 WK (STUDY DURATION: 105 WK), Dose: 0, 30, 60, 120 MG/KG BW IN CORN OIL 5 D/WK FOR 103 WK (STUDY DURATION: 105 WK), Tumor Site: Type of Lesion: KIDNEY (TRANSITIONAL CELL): CARCINOMA): equivocal; carcinogen call (Species: RAT, Strain/Sex: F344/MALE, Route: GAVAGE, Dose: 0, 30, 60, 120 MG/KG BW IN CORN OIL 5 D/WK FOR 103 WK (STUDY DURATION: 2 YR), Dose: 0, 30, 60, 120 MG/KG BW IN CORN OIL 5 D/WK FOR 103 WK (STUDY DURATION: 2 YR)): inactive; negative

With `O=P(OC(CCl)CCl)(OC(CCl)CCl)OC(CCl)CCl` as the compound, how does the carcinogen call (Species: RAT, Strain/Sex: SPRAGUE-DAWLEY CD/FEMALE, Route: ORAL, Dose: 0, 5, 20, 80 MG/KG/D IN FEED FOR 2 YR (STUDY DURATION: 2 YR), Dose: 0, 5, 20, 80 MG/KG/D IN FEED FOR 2 YR (STUDY DURATION: 2 YR), Tumor Site: Type of Lesion: ADRENAL GLAND: CORTICAL ADENOMA, KIDNEY: CORTICAL ADENOMA, LIVER: HEPATOCELLULAR ADENOMA, Tumor Site: Type of Lesion: ADRENAL GLAND: CORTICAL ADENOMA, KIDNEY: CORTICAL ADENOMA, LIVER: HEPATOCELLULAR ADENOMA) read?
Its carcinogen call is “active; positive”.

What about the carcinogen call (Species: RAT, Strain/Sex: SPRAGUE-DAWLEY CD/MALE, Route: ORAL, Dose: 0, 5, 20, 80 MG/KG/D IN FEED FOR 2 YR (STUDY DURATION: 2 YR), Dose: 0, 5, 20, 80 MG/KG/D IN FEED FOR 2 YR (STUDY DURATION: 2 YR), Tumor Site: Type of Lesion: KIDNEY: RENAL CORTICAL ADENOMA, LIVER: HEPATOCELLULAR ADENOMA, TESTES: INTERSTITIAL CELL TUMOR, Tumor Site: Type of Lesion: KIDNEY: RENAL CORTICAL ADENOMA, LIVER: HEPATOCELLULAR ADENOMA, TESTES: INTERSTITIAL CELL TUMOR) of the same compound?
Its carcinogen call is “active; positive”.
